Measurements taken from US20160304861A1, “SPATIAL MULTIPLEXING FOR MULTISIGNAL CELLULAR IMAGING” (Massachusetts Institute of Technology, priority 2015, published 2016).

Tested on: Gcamp6f sensor cluster in HEK293 cells
Test: Gcamp6f sensor cluster response to ionomycin treatment in HEK293 cells
Type: cell-based
Conditions: 20 mM ionomycin in DMSO added at around 2 minutes, FIG. 1C
Method: HEK cells were transfected with the TransIT®-293 transfection reagent (Minis). Cells were plated in a 24-well plate, transfected with 50 ng plasmids per well after 18-24 hours plating, and imaged 24 hours after transfection. Mouse neurons were transfected with the calcium phosphate transfection kit (Invitrogen). Neurons were plated in a 24-well plate, transfected 96 hours after plating with 1500 ng plasmids per well and were imaged at least 48 hours after transfection. For co-transfection in neurons, two plasmids were mixed as 1:1 ratio, maintaining a total of 1500 ng plasmids per well. For HEK experiments, NucBlue Life cell stain and ReadyProbes reagent (Life Technologies) were added to stain the nucleus. Mfn1-null MEF cells (ATCC® CRL-2992™) were plated in a 24-well glass-bottom plate with 50-70% cell confluency. Plasmids were then transfected with a mixture of 200 ng plasmid and […] Trans-IT X2 (Mirus) per well. Transfected cells were incubated at 37° C. for 48-72 hours to establish the expression.
An inverted epi-fluorescence Nikon Ti Eclipse equipped with SPECTRA X light engine (LumenCor), Zyla5.5 camera (Andor), 100× 1.45 NA oil objective lens (Nikon), 20× 0.75 NA objective lens (Nikon), and standard CFP-YFP FRET filter sets (Semrock) were used to image the fluorescent patterns. FRET imaging typically lasts for 10 min. […]

SMILES: C[C@H](CCC(=O)O)C[C@H](C)C[C@H](C)C(=O)/C=C(\O)[C@H](C)C[C@H](C)C/C=C/[C@@H](C)[C@@H](O)[C@@H](C)[C@@H](O)C[C@@H]1CC[C@@](C)([C@H]2CC[C@@](C)([C@@H](C)O)O2)O1 [ionomycin]
- fluorescence by the Gcamp6f sensor cluster: incrase in fluorescence
